Experimental data as given in ChEMBL document CHEMBL6109062, “Novel tertiary diarylethylamines as functionally selective agonists of the kappa opioid receptor” (Bioorg Med Chem Lett, 2025).
Blank lines part the entries; values can stand above or below the molecule they belong to.

Columns and labels:
in vitro [1] = details: human, liver microsomes
in vitro [2] = details: rat, liver microsomes
in vivo [3] = details: rat, po, 10 mg/kg
in vitro [4] = details: dog, MDCK-MDR1
in vivo [5] = details: rat, po, 10 mg/kg; remark: listed apart in the source
in vitro [6] = details: human, hepatocytes
in vitro [7] = details: rat, liver microsomes; remark: listed apart in the source
[8] = Clearance in rat; assay type: ADME; details: in vivo
in vivo [9] = details: rat, po

SMILES: O=c1[nH]c2ccc(CCN(CCc3ccccc3)CC3CCC3)cc2[nH]1
remaining at 0.25 h (in vitro [1]): 66%
remaining at 0.25 h (in vitro [2]): < 5%

SMILES: c1ccc(CCN(CCc2ccc3nc[nH]c3c2)CC2CC2)cc1
half-life (in vivo [3]): 1.2 h
Papp A→B (in vitro [4]): 5.5 ×10⁻⁶ cm/s
bioavailability (in vivo [5]): 2.7%
remaining at 0.25 h (in vitro [1]): 77%
remaining at 0.25 h (in vitro [2]): < 5%
hepatocyte CLint (in vitro [6]): 16.7 µL/min/1e6 cells
remaining at 0.5 h (in vitro [7]): 3%

clearance [8]: 45 mL/min/kg
bioavailability (in vivo [9]): < 1%
remaining at 0.25 h (in vitro [1]): < 5%
SMILES: Oc1cccc(CCN(CC2CCC2)C2CN(Cc3ccccc3)C2)c1

SMILES: CC(Cc1ccc2nc[nH]c2c1)N(CCc1ccccc1)CC1CC1 (stereo unspecified)
remaining at 0.25 h (in vitro [1]): 70%
remaining at 0.25 h (in vitro [2]): 10%
hepatocyte CLint (in vitro [6]): 22.1 µL/min/1e6 cells

SMILES: Oc1cccc(CCN(CCc2ccccc2)CC2CCC2)c1
remaining at 0.25 h (in vitro [1]): < 5%
